In one data set the target is T1, ABCG2 (Homo sapiens, UniProt Q9UNQ0).
T1 sequence (Q9UNQ0 1-655): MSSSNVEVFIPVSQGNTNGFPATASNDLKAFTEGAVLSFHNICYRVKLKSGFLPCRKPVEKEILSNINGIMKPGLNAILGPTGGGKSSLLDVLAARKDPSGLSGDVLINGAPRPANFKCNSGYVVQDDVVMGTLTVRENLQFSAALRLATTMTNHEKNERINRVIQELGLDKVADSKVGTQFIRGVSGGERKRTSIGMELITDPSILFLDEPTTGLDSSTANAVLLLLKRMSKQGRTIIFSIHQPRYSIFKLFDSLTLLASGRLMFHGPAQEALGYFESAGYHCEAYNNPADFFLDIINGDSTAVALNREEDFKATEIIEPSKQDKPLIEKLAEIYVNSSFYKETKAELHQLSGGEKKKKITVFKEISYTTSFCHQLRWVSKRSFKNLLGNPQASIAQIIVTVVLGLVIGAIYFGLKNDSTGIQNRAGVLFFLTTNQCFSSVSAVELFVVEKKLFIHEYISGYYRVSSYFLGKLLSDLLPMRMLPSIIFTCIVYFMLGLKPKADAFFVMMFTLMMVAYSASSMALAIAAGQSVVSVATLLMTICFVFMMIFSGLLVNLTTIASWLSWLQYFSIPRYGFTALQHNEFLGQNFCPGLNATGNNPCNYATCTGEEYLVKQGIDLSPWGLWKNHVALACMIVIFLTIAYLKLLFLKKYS
As to the kind of experiment: Inhibition of ABCG2-mediated mitoxantrone efflux (flow cytometry). It is filed as cell-based. On the set-up: expressed in transfected cells; host or cells: HEK293. The note with it: for IC50 / inhibition at 30 min: HEK293-ABCG2 cells; for IC50: mitoxantrone 10 µM, 30 min, read-out: IC50 (µM) ± SD, inhibition of ABCG2-mediated mitoxantrone efflux; for inhibition at 30 min: human, probe mitoxantrone (10 µM), from IC50 fitted curves, HEK293-ABCG2, mitoxantrone, 100% = Ko143 0.5 µM, read-out: IMAX (%) ± SD, maximal inhibition percentage; for TR, therapeutic ratio (IG50/IC50): ratio between IG50 and IC50 values. The method, then:
ABCG2 inhibition assays were carried out on HEK293 WT and HEK293-ABCG2 cells. Cells were seeded at the density of 1 × 10^5 cells/well in 24 well culture plates and incubated for 48 h at 37 °C under 5% CO2. Cells were treated with compounds and 10 μM of mitoxantrone for 30 min at 37 °C and 5% CO2. After incubation the cells were washed with PBS, trypsinized and resuspended in ice cold PBS. The intracellular drug fluorescence was monitored with a FACS Calibur cytometer (Becton Dickinson) using the FL4 channel, with at least 10,000 events collected. The maximal fluorescence (taken as 100%) was determined with the difference between the mean fluorescence of HEK-ABCG2 cells incubated with 0.5 μM Ko143 (ABCG2 reference inhibitor) or by using the HEK293 WT cell line as a control and cells without inhibitor (mitoxantrone alone). The percent of inhibition was determined as previously described. For bimodulation assays the cells were concomitantly treated with 10 μM of one or two combined inhibitors under similar conditions as described previously. For washing assays, cells were treated with 10 μM concentrations of compounds for 30 min. Then, the medium with the inhibitor was removed and the cells were washed with PBS and incubated only with culture medium for different periods of time (0.5 and 3 h). After incubation, cells were exposed to 5 µM mitoxantrone for 30 min, and then analyzed by flow cytometry. The percentage of transport inhibition was calculated by the following equation: %Inhibition=C-S/I-S×100 where “C” corresponds to the intracellular fluorescence of cells in the presence of the tested compounds and substrate (mitoxantrone to ABCG2, Rhodamine 123 to ABCB1 and calcein to ABCC1), “S” corresponds to the intracellular fluorescence of cells in the presence of substrate alone, and “I” corresponds to the intracellular fluorescence of cells in the presence of the substrate and reference inhibitor (Ko143 to ABCG2, GF120918 to ABCB1 and verapamil to ABCC1).
(Flow cytometry measures light scatter and fluorescence of single cells or particles in a stream.)

Regarding `COc1ccccc1CCn1c2c(c3c1-c1ccccc1C3=O)C(=O)CC(C)C2` (stereo not drawn) [5a, 5-(2-Methoxyphenethyl)-7-methyl-5,6,7,8-tetrahydroindeno[1,2-b]indole-9,10-dione], the melting point is 204 °C. At ABCG2, the IC50 is 0.25 ± 0.01 µM; the inhibition at 30 min is 72.5 ± 3.72%; the “TR, therapeutic ratio (IG50/IC50)” value was greater than 393.60.
In the case of `O=C1c2ccccc2-c2c1c1c(n2CCc2ccccc2)CCC(Cc2ccccc2)C1=O` (stereo not drawn) [5b, 8-Benzyl-5-phenethyl-5,6,7,8-hexahydroindeno[1,2-b]indole-9,10-dione], on ABCG2, the IC50 turned out to be 0.45 ± 0.1 µM; the inhibition at 30 min turned out to be 113 ± 3.67%; the “TR, therapeutic ratio (IG50/IC50)” value was 28.10.
The compound `COc1ccc2[nH]cc(CCn3c4c(c5c3-c3ccccc3C5=O)C(=O)CCC4)c2c1` [5c, 5-(2-(5-Methoxy-1H-indol-3-yl)ethyl)-5,6,7,8-tetrahydroindeno[1,2-b]indole-9,10-dione] displayed a melting point of 279 °C. In addition, on ABCG2, the IC50 came to 0.65 ± 0.03 µM; the inhibition at 30 min turned out to be 60 ± 4.04%; the “TR, therapeutic ratio (IG50/IC50)” value was determined as 56.41.
The corresponding values for `COc1cccc(CCn2c3c(c4c2-c2cc(O)ccc2C4=O)C(=O)CCC3)c1` [5d, 3-Hydroxy-5-(3-methoxyphenethyl)-5,6,7,8-tetrahydroindeno[1,2-b]indole-9,10-dione] are 222 °C, 2.71 ± 0.14 µM, 68.5 ± 0.68% and 9.85.
The corresponding values for `CC1CC(=O)c2c3c(n(CCc4ccccc4)c2C1)-c1cccc(O)c1C3=O` (stereo not drawn) [5f, 1-Hydroxy-7-Methyl-5-phenethyl-5,6,7,8-tetrahydroindeno[1,2-b]indole-9,10-dione] are 246 °C, 0.18 ± 0.02 µM, 48.4 ± 0.8% and 153.24.
The corresponding values for `CC1CC(=O)c2c3c(n(CCc4ccccc4)c2C1)-c1c(O)cccc1C3=O` (stereo not drawn) [5g, 4-Hydroxy-7-methyl-5-phenethyl-5,6,7,8-tetrahydroindeno[1,2-b]indole-9,10-dione] are 283 °C, 0.44 ± 0.03 µM, 65.2 ± 0.94% and 58.79.
In the case of `COc1ccccc1CCn1c2c(c3c1-c1cccc(O)c1C3=O)C(=O)CCC2` [5h, 1-Hydroxy-5-(2-methoxyphenethyl)-5,6,7,8-tetrahydroindeno[1,2-b]indole-9,10-dione], the melting point came out at 173 °C. Further, on ABCG2, the IC50 came out at 0.42 ± 0.07 µM; the inhibition at 30 min is 69.6 ± 1.14%; the “TR, therapeutic ratio (IG50/IC50)” value was 57.21.
In the case of `COc1ccccc1CCn1c2c(c3c1-c1c(OCC=C(C)C)cccc1C3=O)C(=O)CCC2` [5k, 5-(2-Methoxyphenethyl)-4-(3-methylbut-2-enyloxy)-5,6,7,8-hexahydroindeno[1,2-b]indole-9,10-dione], on ABCG2, the IC50 was 0.92 ± 0.1 µM; the inhibition at 30 min is 116 ± 2.36%; the “TR, therapeutic ratio (IG50/IC50)” value is given as 22.85.
Regarding `COc1ccccc1CCn1c2c(c3c1-c1cccc(OCC=C(C)C)c1C3=O)C(=O)CC(C)C2` (stereo not drawn) [5l, 5-(2-Methoxyphenethyl)-7-methyl-1-((3-methylbut-2-enyl)oxy)-5,6,7,8-tetrahydroindeno[1,2-b]indole-9,10-dione], on ABCG2, the IC50 turned out to be 0.24 ± 0.03 µM; the inhibition at 30 min came out at 82.3 ± 3.44%; the “TR, therapeutic ratio (IG50/IC50)” value came out at 59.72.
The corresponding values for `COc1ccccc1CCn1c2c(c3c1-c1c(OCC=C(C)C)cccc1C3=O)C(=O)CC(C)C2` (stereo not drawn) [5m, 5-(2-Methoxyphenethyl)-7-methyl-4-((3-methylbut-2-enyl)oxy)-5,6,7,8-hexahydroindeno[1,2-b]indole-9,10-dione] are 0.19 ± 0.07 µM, 87.4 ± 2.46% and 66.23.
On to `CC(C)=CCOc1cccc2c1-c1c(c3c(n1CCc1ccccc1)CC(C)CC3=O)C2=O` (stereo not drawn) [5n], for which, at ABCG2, the IC50 was determined as 4.09 ± 0.56 µM; the inhibition at 30 min amounted to 133 ± 3.35%; the “TR, therapeutic ratio (IG50/IC50)” value turned out to be 5.26.

For orientation: melting point means the temperature of the solid-liquid transition. Usually IC50 stands for the concentration that gives 50% inhibition. By inhibition is commonly meant the drop in the measured response relative to a control, in per cent.

For the origin of these results see PMC7815716, “Mechanistic basis of breast cancer resistance protein inhibition by new indeno[1,2-b]indoles” (Scientific Reports, 2021).
